Measurements: patent US20060160848A1 (priority 2002, published 2006)
Like-named read-outs stand apart in the source and are kept apart here.

What was measured:
mouse hepatocytes [1] = system: mouse hepatocytes
mouse hepatocytes [2] = assay: cells; conditions: Hepatocyte, 1 h
mouse hepatocytes [3] = assay: Crotyl alcohol toxicity in isolated mouse hepatocytes (LDH leakage); conditions: 500 μM crotyl alcohol; for protection against crotyl alcohol toxicity by other hydrazines: 1-100 μM hydrazine, 1-3 hours
mouse liver = assay: Adduct-trapping in mouse liver proteins (Western blot, immunohistochemistry); assay type: in vivo; conditions: for immunohistochemical detection of hydralazine-stabilized acrolein adducts in liver sections: 4 hours after 300 μmol/kg i.p., hydralazine given with allyl alcohol, hydrazone given alone
mice = assay: Allyl alcohol hepatotoxicity in mice (plasma SDH, GPT, hepatic GSH)
PC-12 cells = assay: Allylamine cytotoxicity in PC-12 cells (MTT)
mouse hepatocytes [4] = system: mouse hepatocytes; remark: listed apart in the source
acrolein-modified BSA = target: T1, acrolein-modified BSA (Bos taurus, UniProt P02769); assay: Cell-free immunoassay for adduct-breaking on acrolein-pretreated BSA; assay type: biochemical, bovine; conditions: for adduct-breaking activity (acrolein-lysine adducts in BSA): BSA pretreated with 1 mM acrolein 20 min, 50, 250 and 500 μM test compound, 30 min at 37° C.
T1 construct: a model protein (BSA, bovine serum albumin); from tissue; host or cells: bovine serum (from the protein's name only)
T1 sequence (P02769 25-607): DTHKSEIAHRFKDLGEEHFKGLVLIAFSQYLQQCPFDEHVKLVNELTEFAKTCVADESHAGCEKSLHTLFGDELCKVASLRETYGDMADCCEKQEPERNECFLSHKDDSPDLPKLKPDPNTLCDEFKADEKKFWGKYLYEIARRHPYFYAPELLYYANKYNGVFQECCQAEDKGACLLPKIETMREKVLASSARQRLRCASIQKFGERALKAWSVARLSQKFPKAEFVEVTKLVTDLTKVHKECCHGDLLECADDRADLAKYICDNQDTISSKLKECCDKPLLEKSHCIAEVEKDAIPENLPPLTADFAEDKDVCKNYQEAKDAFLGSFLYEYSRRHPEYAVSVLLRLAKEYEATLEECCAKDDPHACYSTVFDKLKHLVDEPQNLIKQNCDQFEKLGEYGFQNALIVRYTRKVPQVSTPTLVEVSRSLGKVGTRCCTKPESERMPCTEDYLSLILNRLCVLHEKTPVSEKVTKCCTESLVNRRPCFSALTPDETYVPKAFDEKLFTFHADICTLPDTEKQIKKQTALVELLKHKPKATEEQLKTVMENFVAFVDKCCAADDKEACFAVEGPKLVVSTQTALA

[5] = pH 7
mouse hepatocytes [6] = assay: Toxicity of smoke extract in mouse hepatocytes (LDH leakage); assay type: cell-based; conditions: 50 μM smoke-derived acrolein equivalents; 25, 50 and 100 μM drug; up to 180 min
acrolein-premodified BSA = acrolein-premodified BSA (Bos taurus, UniProt P02769); conditions: 1 mM acrolein, then 50 to 500 μM hydralazine 30 min
Chain of acrolein-premodified BSA (P02769 25-607): as above

[7] = hypertensive human subjects, 50 mg oral dose; cited from earlier work
mouse hepatocytes [8] = system: mouse hepatocytes; remark: listed apart in the source
[9] = target: bovine pancreas ribonuclease A (Bos taurus, UniProt P61823); conditions: 3.2 mM acrolein; 0.3 to 3 mM hydralazine
Chain of bovine pancreas ribonuclease A (P61823 27-150): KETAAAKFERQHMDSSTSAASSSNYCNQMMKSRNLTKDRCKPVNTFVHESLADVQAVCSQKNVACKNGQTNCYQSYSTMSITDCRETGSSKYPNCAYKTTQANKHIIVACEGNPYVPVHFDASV

mouse hepatocytes [10] = system: mouse hepatocytes; remark: listed apart in the source
mouse hepatocytes [11] = conditions: 0.5 mM acrolein; 0.3 to 3 mM hydralazine
mouse hepatocytes [12] = conditions: 15 min, 3 mM hydralazine alone or 0.5 mM acrolein + 0.3 to 3 mM hydralazine
[13] = Sequestering of crotonaldehyde from buffered solution at 37° C. (HPLC); conditions: equimolar scavenger, up to 30 minutes
[14] = read-out: PC50 (concentration producing a 50% decrease in LDH leakage)
[15] = read-out: PC50 (concentration affording 50% reduction in cell killing)
[16] = 200 vs 100 μmol/kg hydralazine, allyl alcohol 90 mg/kg, 60 minutes
[17] = allyl alcohol 90 mg/kg i.p., 4 hours, estimated from dose-response
[18] = hydralazine 200 μmol/kg i.p., allyl alcohol 90 mg/kg

Compound: 1,1-dimethylhydrazine
- EC50 (mouse hepatocytes [1]; [14]): > 100 µM

Compound: NN(c1ccccc1)c1ccccc1 [1,1-diphenylhydrazine]
- EC50 (mouse hepatocytes [2]; [14]): 2 ± 0.01 µM
- protection against crotyl alcohol toxicity by other hydrazines (mouse hepatocytes [3]): best protection

Compound: c1ccc(NNc2ccccc2)cc1 [1,2-diphenylhydrazine]
- EC50 (mouse hepatocytes [2]; [14]): 19 ± 2.6 µM

Compound: C=C/C=N/Nc1nncc2ccccc12 [(1E)-acrylaldehyde 1-[1-phthalazinyl]-hydrazone]
- immunohistochemical detection of hydralazine-stabilized acrolein adducts in liver sections (mouse liver): no immunorecognition was evident

Compound: c1ccc(Nc2ccc(Nc3ccccc3)cc2)cc1 [N,N′-Diphenyl-p- phenylenediamine, N,N′-Diphenyl-p-phenylenediamine]
- EC50 (mouse hepatocytes [2]; [14]): 4 ± 1.3 µM

Compound: CCCCNC [N-methylbutylamine]
- EC50 (mouse hepatocytes [2]; [14]): 6 ± 2.2 µM

Compound: C=CCO [allyl alcohol]
- cell death induced (mouse hepatocytes [1]; mouse): 100%
- fatalities (mice; 90 mg/kg): no fatalities
- decrease in hepatic GSH stores (mice; 90 mg/kg i.p., 4 hours): 65%
- elevation of plasma GPT activity over controls (mice; 90 mg/kg i.p., 4 hours): 24 fold
- elevation of plasma SDH activity over controls (mice; 90 mg/kg i.p., 4 hours): 30 fold
- mortality (mice; 100 mg/kg): 30%

Compound: C=CCN [allylamine]
- EC50 (PC-12 cells; Rattus norvegicus, PC-12, 24 h, read-out: concentration producing 50% cell death): ~45 µM

Compound: Nc1ccccc1 [aniline]
- EC50 (mouse hepatocytes [2]; [14]): 61 ± 20 µM

Compound: NCc1ccccc1 [benzylamine]
- EC50 (mouse hepatocytes [2]; [14]): > 100 µM

Compound: NNCc1ccccc1 [benzylhydrazine]
- EC50 (mouse hepatocytes [2]; [14]): 37 ± 1.8 µM
- protection against crotyl alcohol toxicity by other hydrazines (mouse hepatocytes [3]): very poor cytoprotection

Compound: c1ccc2c(c1)[nH]c1ccccc12 [carbazole]
- EC50 (mouse hepatocytes [2]; [14]): 40 ± 12 µM

Compound: C/C=C/CO [crotyl alcohol]
- cell death induced (mouse hepatocytes [3]; by 3 hours): 100%

Compound: NC1CCCCC1 [cyclohexylamine]
- EC50 (mouse hepatocytes [2]; [14]): > 100 µM

Compound: O=P1(N(CCCl)CCCl)NCCCO1 (stereo not shown) [cyclophosphamide]
- concentration producing complete cell death (mouse hepatocytes [4]; 18-hr incubation): ≥ 250 µM

Compound: C1CCC(NC2CCCCC2)CC1 [dicyclohexylamine]
- EC50 (mouse hepatocytes [2]; [14]): 59 ± 11 µM

Compound: NNc1nnc(NN)c2ccccc12 [dihydralazine]
- adduct-breaking activity (acrolein-lysine adducts in BSA) (acrolein-modified BSA): reducing adducts below detectable levels
- acrolein removed from solution [5]: ~92%
- EC50 (mouse hepatocytes [2]; [15]): 5.2 ± 1.5 µM
- EC50 (mouse hepatocytes [2]; [14]): 13 ± 0.29 µM
- cell viability restored to (PC-12 cells; 45 μM allylamine, 24 hr, approximately 1 μM dihydralazine and higher, allylamine alone about 40% of controls): approximately 80%
- protection against crotyl alcohol toxicity (LDH leakage) (mouse hepatocytes [3]; co-incubated up to 3 hours, 1-100 μM): approximately twice as effective as hydralazine
- attenuation of allyl alcohol toxicity (LDH leakage) (mouse hepatocytes [1]): strongly attenuated the toxicity of allyl alcohol
- protection against allyl alcohol toxicity (LDH leakage) (mouse hepatocytes [1]): approximately twice as protective as hydralazine
- effect on cyclophosphamide-induced LDH leakage (mouse hepatocytes [4]): attenuated the toxicity of cyclophosphamide
- attenuation of LDH leakage caused by smoke extract (mouse hepatocytes [6]): completely attenuating LDH leakage at all concentrations examined

Compound: CC(C)NC(C)C [diisopropylamine]
- EC50 (mouse hepatocytes [2]; [14]): 66 ± 15 µM

Compound: c1ccc(Nc2ccccc2)cc1 [diphenylamine]
- EC50 (mouse hepatocytes [2]; [14]): 3 ± 1.2 µM

Compound: NNc1nncc2ccccc12 [hydralazine]
- time acrolein adducts retained susceptibility to cleavage by hydralazine (acrolein-modified BSA; BSA + 1 mM acrolein 15-180 min, then 2 mM hydralazine 30 min): at least 30 minutes
- adduct-breaking activity (acrolein-lysine adducts in BSA) (acrolein-modified BSA): diminished the intensity of acrolein adducted-BSA in a concentration-dependent manner
- acrolein removed from solution [5]: approximately 82%
- EC50 (mouse hepatocytes [2]; [15]): 8.3 ± 4 µM
- EC50 (mouse hepatocytes [2]; [14]): 18 ± 0.81 µM
- adduct-trapping in PC12 cell proteins (Western blot) (PC-12 cells; 100 μM hydralazine + 80 or 100 μM allylamine): intense adduct-trapping reactions
- protection against allylamine toxicity, added after 4 hour prior exposure (PC-12 cells; 100 μM hydralazine, 20-100 μM allylamine): also protected
- protection against allylamine toxicity, concurrent exposure (PC-12 cells; 100 μM hydralazine, 20-100 μM allylamine, overnight): clear protection
- adduct-trapping in acrolein-premodified BSA (acrolein-premodified BSA): strong adduct-trapping
- attenuation of allyl alcohol toxicity (LDH leakage) (mouse hepatocytes [1]): strongly attenuated the toxicity of allyl alcohol
- protection against allyl alcohol toxicity (LDH leakage) (mouse hepatocytes [1]): inhibited this toxicity in a concentration dependent manner
- effect on cyclophosphamide-induced LDH leakage (mouse hepatocytes [4]): attenuated the toxicity of cyclophosphamide
- peak plasma level [7]: ~2 µM
- protection against pentenal toxicity (mouse hepatocytes [8]; 1 mM pentenal, 3 hours): protection was most efficient for pentenal toxicity
- concentration achieving complete protection against propargyl alcohol toxicity (mouse hepatocytes [8]; 1 mM propargyl alcohol, 3 hours, highest concentration used): 100 µM
- concentration achieving complete protection against MDA toxicity (mouse hepatocytes [8]; 10 mM MDA, 12 to 18 hours, highest concentration used): 100 µM
- acrolein-lysine adducts in RNase A, added at 30 minutes [9]: abolished the levels of acrolein-lysine adducts
- effect on cross-linked RNase A, added at 120 minutes [9]: incapable of cleaving crosslinked RNase A
- inhibition of RNase A cross-linking, added at 30 minutes [9]: strongly inhibited formation of crosslinked RNase A
- adduct-trapping in cell proteins (mouse hepatocytes [10]; 100 μM allyl alcohol 25 min, then 5 to 50 μM hydralazine 30 min): intense, concentration-dependent adduct-trapping
- increase in band intensity (densitometry) (mouse hepatocytes [10]; 37, 40 and 43 kDa proteins, hydralazine 4 to 10 μM, postadduction phase): 12- to-200 fold
- elevation in signal intensity, 26 kDa protein (mouse liver; [16]): 2.6 fold
- elevation in signal intensity, 31 kDa protein (mouse liver; [16]): 2.4 fold
- adduct-trapping in liver proteins (Western blot) (mouse liver; 60 minutes after allyl alcohol 90 mg/kg + hydralazine 100 μmol/kg): strong adduct-trapping
- immunohistochemical detection of hydralazine-stabilized acrolein adducts in liver sections (mouse liver): intense adduct-trapping
- cytoprotection against acute acrolein toxicity (LDH leakage) (mouse hepatocytes [11]): afford cytoprotection
- effect on allyl alcohol-induced changes in plasma SDH and GPT activities (mice; allyl alcohol 90 mg/kg i.p. + hydralazine 300 μmol/kg i.p., 4 hours): almost totally abolishing
- dose affording half-maximal protection against liver injury (GPT) (mice; [17]): 80 µmol/kg
- dose affording half-maximal protection against liver injury (SDH) (mice; [17]): 160 µmol/kg
- effect on hepatic GSH depletion caused by allyl alcohol (mice; allyl alcohol 90 mg/kg, hepatoprotective doses up to 300 μmol/kg): had no effect upon the hepatic GSH depletion
- effect on plasma SDH levels (mice; allyl alcohol 100 mg/kg i.p. + hydralazine 100 μmol/kg i.p., 4 hours): did not alter the levels of SDH
- decrease in plasma SDH activity (mice; allyl alcohol 100 mg/kg i.p. + hydralazine 200 and 300 μmol/kg i.p., 4 hours): 75 to 90%
- hepatoprotection (plasma SDH), 30 minute delay (mice; [18]): hepatoprotective efficacy was diminished
- hepatoprotection (plasma SDH), co-administered or 20 minute delay (mice; [18]): strongly hepatoprotective
- intensity of acrolein adduct-containing protein bands (mouse hepatocytes [12]): much lower than that seen in control cells
- intensity of acrolein adduct-containing protein bands (mouse hepatocytes [12]; listed as Hydralazine): decreasing levels of adducted proteins below control values

Compound: NNc1nccc2ccccc12 [hydrazinoisoquinoline, 1-hydrazinoisoquinoline]
- EC50 (mouse hepatocytes [2]; [14]): 6 ± 0.14 µM

Compound: NNc1ccccn1 [hydrazinopyridine, 2-hydrazinopyridine]
- EC50 (mouse hepatocytes [2]; [14]): 40 ± 6.1 µM

Compound: NNc1ncnc2ccccc12 [hydrazinoquinazoline, 4-hydrazinoquinazoline]
- EC50 (mouse hepatocytes [2]; [14]): 10 ± 0.05 µM

Compound: NNc1ccc2ccccc2n1 [hydrazinoquinoline, 2-hydrazinoquinoline]
- EC50 (mouse hepatocytes [2]; [14]): 11 ± 0.44 µM

Compound: NCCCC[C@H](N)C(=O)O [lysine]
- acrolein removed from solution [5]: approximately 13%

Compound: CON [methoxyamine]
- adduct-breaking activity (acrolein-lysine adducts in BSA) (acrolein-modified BSA): effects were most evident at the top concentration studied
- acrolein removed from solution [5]: around 40%
- EC50 (mouse hepatocytes [2]; [15]): 9000 ± 1800 µM
- EC50 (mouse hepatocytes [2]; [14]): 9000 ± 1800 µM

Compound: NNc1cccc2ccccc12 [naphthylhydrazine]
- EC50 (mouse hepatocytes [2]; [14]): 7 ± 0.19 µM

Compound: Nc1ccccc1O [o-aminophenol]
- EC50 (mouse hepatocytes [2]; [14]): 18 ± 3.2 µM

Compound: Nc1ccc(O)cc1 [p-aminophenol]
- EC50 (mouse hepatocytes [2]; [14]): 20 ± 8.5 µM

Compound: Oc1ccccc1 [phenol]
- EC50 (mouse hepatocytes [2]; [14]): 48 ± 12 µM

Compound: NNc1ccccc1 [phenylhydrazine]
- EC50 (mouse hepatocytes [2]; [14]): 8 ± 0.28 µM

Compound: CCCC(C(=O)OCCN(CC)CC)(c1ccccc1)c1ccccc1 [proadifen]
- effect on cyclophosphamide-induced LDH leakage (mouse hepatocytes [4]): abolished the cyclophosphamide-induced increase in LDH leakage

Compound: Cc1ncc(CO)c(CN)c1O [pyridoxamine]
- adduct-breaking activity (acrolein-lysine adducts in BSA) (acrolein-modified BSA): lacked adduct-breaking potency
- EC50 (mouse hepatocytes [2]; [15]): > 10000 µM
- EC50 (mouse hepatocytes [2]; [14]): > 10000 µM

Compound: O=C(O)c1ccccc1O [salicylic acid]
- EC50 (mouse hepatocytes [2]; [14]): 59 ± 11 µM

Compound: Sc1ccccc1 [thiophenol]
- EC50 (mouse hepatocytes [2]; [14]): > 100 µM

Compound: aminoguanidine
- adduct-breaking activity (acrolein-lysine adducts in BSA) (acrolein-modified BSA): lacked adduct-breaking potency
- acrolein removed from solution [5]: approximately 4%
- EC50 (mouse hepatocytes [1]; [15]): > 10000 µM
- EC50 (mouse hepatocytes [1]; [14]): > 10000 µM

Compound: carnosine
- ability to sequester crotonaldehyde from solution [13]: slightly more effective at removing crotonaidehyde from solution than pyridoxamine
- adduct-breaking activity (acrolein-lysine adducts in BSA) (acrolein-modified BSA): lacked adduct-breaking potency
- acrolein removed from solution [5]: approximately 20%
- EC50 (mouse hepatocytes [1]; [15]): > 10000 µM
- EC50 (mouse hepatocytes [1]; [14]): > 10000 µM
